Where “and” joins values, the source holds several entries; their conditions need not be identical. Equal values may be shown once.

This note sets out measurements from PubChem BioAssay AID1918954 (Molecular Pharmacology Branch, DTP, NCI, 2023).

The test system of the experiment is MDA-MB-468 complex spheroids with HUVEC/MSC, viability. Nature of the experiment: Anticancer human tumor MDA-MB-468 cell line growth inhibition.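 For all read-outs here: spheroids exposed to agents for seven days.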 The conditions noted are these: for viability, T/C: stronger effect = lower value; for IC50: curve of compound. The text has this: Multicellular complex tumor spheroid response to LSD1 Inhibitor Iadademstat in combination with a variety of drugs and investigational agents in selected tumor cell lines
The current study was undertaken to assess response to LSD1 inhibitors in combination with standard-of-care drugs and investigational agents in solid tumor complex spheroid models as well as in the K-562 leukemia. Complex spheroids include a stromal component modeled by human endothelial cells (HUVEC) and fibroblasts modeled by human mesenchymal stem cells (MSCs). The concentration ranges selected for each drug and investigational agent were based upon clinically achievable concentrations if the clinical Cmax of the agent was known.
Compounds. The drugs and investigational agents used in this study are listed on Table 1. All of the agents used, including staurosporine (NSC755774) and gemcitabine (NSC613327), were obtained from the Developmental Therapeutics Program, NCI. FDA-approved anticancer drugs are available from the NCI at http://dtp.nci.nih.gov/branches/dscb/oncology_drugset_explanation.html. Drugs and investigational agents were >95% pure by proton nuclear magnetic resonance (NMR) and liquid chromatography/mass spectrometry (LC/MS). Stock solutions were prepared at 400x in DMSO, stored at -70 degrees C, and diluted in fresh medium prior to their use. The final concentration of DMSO in cell culture wells never exceeded 0.25% (v/v). The FDA-approved anticancer drug set is available from the Developmental Therapeutics Program at https://dtp.cancer.gov/organization/dscb/obtaining/available_plates.htm. All drugs and investigational agents were tested over a range starting from a high concentration at or near the clinical Cmax and decreasing in half-log increments. If the clinical Cmax for an agent had not been determined, the highest concentration tested was 10 microM.
Cell Lines. The patient-derived cancer cell (PDC) lines: 292921-168-R-J2-PDC, K24384-001-R-PDC, and 521955-158-R2-J5-PDC pancreatic carcinomas, 556581-035-R-J1 ovarian carcinoma, 324938-238-R-J1-PDC, 855422-203-R-J1-PDC and 883617-216-R-J1-PDC urothelial bladder carcinomas, 743489-274-T-PDC renal cell carcinoma, 138582-R-J1 Merkel cell tumor, K60290-347-R-J1 and K57222-313-R-J1-PDC glioblastomas, 653999-131-R-J2-PDC, LG0703-F948-PDC, and 349418-098-R-PDC non-small cell lung carcinomas, 885512-296-R-J2-PDC, 171881-019-R-J1-PDC breast carcinomas and 186277-243-T-J2-PDC and 233499-124-R-J2-PDC colon carcinomas were obtained from the NCI Patient-Derived Models Repository (PDMR, https://pdmr.cancer.gov). The established cell lines NCI/ADR-RES (RRID:CVCL_14520 and OVCAR-5 (RRID:CVCL_1628) ovarian carcinomas, 786-O (RRID:CVCL_1051) and A498 (RRID:CVCL_A498) renal cell carcinoma, NCI-H211 (ATCC, cat. CRL-5824; RRID:CVCL_1529), NCI-H196 (ATCC, cat. CRL-5823, RRID:CVCL_1509), SW 1271 (ATCC, cat. CRL-2177, RRID:CVCL_1716) and NCI-H1876 (ATCC, cat. CRL-5902, RRID:CVCL_1503) small cell lung carcinomas, MDA-MB-231 (RRID:CVCL_0062) and MDA-MB-468 (RRID:CVCL_0419)breast carcinomas (10-12). Pooled donor human umbilical vein endothelial cells (HUVEC, Lonza, cat. CC-2519) and human mesenchymal stem cells (hMSC, Lonza, cat. PT-2501) were purchased from Lonza (Walkersville, MD).
Cell Culture. All cells were maintained in an incubator at 37 degrees C and 5% CO2 with 95% humidity. The PDC lines were cultured according to standard operating procedures established by the NCI PDMR (https://pdmr.cancer.gov). Briefly all PDCs were thawed and cultured in Matrigel-coated flasks prepared with a working solution of 1X Ham's F-12 nutrient mix, without supplementation (Invitrogen, Waltham, MA, cat. 11765054), 100 U/mL penicillin-streptomycin (Invitrogen, cat. 15140122), and 2.5% Matrigel (Corning Inc., Corning, NY, cat. 354248) for the first three passages. […]

`Cn1ncnc1C1c2n[nH]c(=O)c3cc(F)cc(c23)NC1c1ccc(F)cc1` (stereo unspecified): the IC50 (usually the concentration at which inhibition is half-maximal) was greater than 100 nM. The viability, T/C – broadly, the result in the treated group divided by that in the control group, in per cent – (compound 0.000316 µM) is 103% and 96.9%. Further, the viability, T/C (compound 0.001 µM) was 86.7% and 79.6%. Besides, the viability, T/C (compound 0.00316 µM) was 77.2% and 65.3%. For the same compound, the viability, T/C (compound 0.01 µM) was 72% and 75%. In addition, the viability, T/C (compound 0.0316 µM) is 61.2% and 64.5%. For the same compound, the viability, T/C (compound 0.1 µM) is 60.7% and 50.9%.
Take `NS(=O)(=O)OCC1CC(n2ccc3c(NC4CCc5ccccc54)ncnc32)CC1O` (stereo unspecified): the IC50 was 31.5 nM and 12 nM. In addition, for the setting “compound 0.00949 µM”, the viability, T/C is 67.5% and 55.7%. In addition, the viability, T/C (compound 0.03 µM) was 52.1% and 28.4%. The viability, T/C (compound 0.0949 µM) is 19.3% and 11.1%. Further, the viability, T/C (compound 0.3 µM) was 12.9% and 5.49%. The viability, T/C (compound 0.949 µM) is 6.45% and 3.24%. For the same compound, the viability, T/C (compound 3 µM) was 3.84% and 2.08%.
Turning to `Nc1ccccc1NC(=O)c1ccc(CNC(=O)OCc2cccnc2)cc1`, the IC50 was 145 nM and 74.3 nM. For the same compound, the viability, T/C (compound 0.00949 µM) is 98.7% and 100%. In addition, the viability, T/C (compound 0.03 µM) is 99.5% and 103%. In addition, under “compound 0.0949 µM”, the viability, T/C was 70.2% and 36.1%. Besides, the viability, T/C (compound 0.3 µM) was 14.8% and 2.86%. For the setting “compound 0.949 µM”, the viability, T/C was 3.01% and 0.37%. Also, the viability, T/C (compound 3 µM) is 1.7% and 0.2%.
Turning to `Nc1ccn(C2OC(CO)C(O)C2(F)F)c(=O)n1` (stereo unspecified), the IC50 was less than 0.949 nM. The viability, T/C (compound 0.003 µM) is 6.32% and 18.5%. Besides, the viability, T/C (compound 0.00949 µM) was 5.5% and 5.58%. The viability, T/C (compound 0.03 µM) was 5.68% and 4.46%. For the same compound, under “compound 0.0949 µM”, the viability, T/C was 5.72% and 4.42%. The viability, T/C (compound 0.3 µM) is 5.93% and 4.29%.
Take `Nc1ncn(C2CC(O)C(CO)O2)c(=O)n1` (stereo unspecified): the IC50 was 13.6 nM and 17.3 nM. Also, the viability, T/C (compound 0.00316 µM) was 81.4% and 94.2%. For the same compound, the viability, T/C (compound 0.01 µM) was 59.5% and 67%. Besides, the viability, T/C (compound 0.0316 µM) is 23.6% and 31.2%. For the same compound, the viability, T/C (compound 0.1 µM) is 15% and 14.6%. For the same compound, the viability, T/C (compound 0.316 µM) is 12.6% and 11%. In addition, the viability, T/C (compound 1 µM) is 12% and 8.85%.
For the compound `Nc1ncn(C2CC(O)C(CO)S2)c(=O)n1` (stereo unspecified), the IC50 was 120 nM and 35.5 nM. Moreover, the viability, T/C (compound 0.000949 µM) is 79.6% and 100%. The viability, T/C (compound 0.003 µM) is 74.9% and 93.2%. Besides, the viability, T/C (compound 0.00949 µM) was 75.2% and 70.6%. Also, the viability, T/C (compound 0.03 µM) was 73.4% and 52%. The viability, T/C (compound 0.0949 µM) was 53.9% and 36.5%. Moreover, under “compound 0.3 µM”, the viability, T/C was 34.9% and 20.4%.
`O=C(C=Cc1cccc(S(=O)(=O)Nc2ccccc2)c1)NO`: the IC50 is 75.6 nM and 52 nM. Also, for the setting “compound 0.00949 µM”, the viability, T/C was 80.6% and 78.8%. The viability, T/C (compound 0.03 µM) was 72.8% and 67.2%. Also, for the setting “compound 0.0949 µM”, the viability, T/C is 44.4% and 25.1%. For the same compound, the viability, T/C (compound 0.3 µM) was 17.5% and 2.5%. In addition, the viability, T/C (compound 0.949 µM) is 4.34% and 0.22%.
As to `O=C(C=Cn1cnc(-c2cc(C(F)(F)F)cc(C(F)(F)F)c2)n1)NNc1cnccn1`, the IC50 was less than 3.16 nM. In addition, the viability, T/C (compound 0.00316 µM) was 39.9% and 36.5%. Where the note is “compound 0.01 µM”, the viability, T/C is 29.8% and 27.9%. Besides, the viability, T/C (compound 0.0316 µM) was 8.39% and 16.7%. The viability, T/C (compound 0.1 µM) is 3.01% and 3.24%. Moreover, the viability, T/C (compound 0.316 µM) was 2.33% and 1.39%. The viability, T/C (compound 1 µM) was 1.59% and 0.94%.
For `O=C(c1cc(Cc2n[nH]c(=O)c3ccccc23)ccc1F)N1CCN(C(=O)C2CC2)CC1`, the IC50 is 989 nM and 1050 nM. Further, the viability, T/C (compound 0.0316 µM) was 94.3% and 76.8%. Further, under “compound 0.1 µM”, the viability, T/C was 73.5% and 79.1%. In addition, for the setting “compound 0.316 µM”, the viability, T/C was 75% and 69.3%. The viability, T/C (compound 1 µM) is 52.9% and 52.6%. The viability, T/C (compound 3.16 µM) is 21.7% and 20.2%. In addition, the viability, T/C (compound 10 µM) was 22.6% and 21.4%.
